Data published in article PMC6566410, “Novel Diamide-Based Benzenesulfonamides as Selective Carbonic Anhydrase IX Inhibitors Endowed with Antitumor Activity: Synthesis, Biological Evaluation and In Silico Insights” (International Journal of Molecular Sciences, 2019).

How the values were obtained:
Test in all cases: NCI one-dose SRB assay
Type in all cases: cell-based
OVCAR-4 = conditions: Homo sapiens, OVCAR-4 (Ovarian Cancer), 1.00E-5 Molar, read-out: Growth Percent
Description: (§1) First, all diamide-based benzenesulfonamides herein reported 5a–h were screened for their antitumor activity at one dose (10^−5 M) assay against a panel of sixty cancer cell lines through the National Cancer Institute (NCI) Developmental Therapeutic Program (www.dtp.nci.nih.gov), according to US-NCI protocol. The cell growth and cell viability were evaluated using the sulforhodamine B (SRB) colorimetric assay.
(§2) This assay was carried out according to the protocol of the Drug Evaluation Branch, NCI, Bethesda. The cell growth and cell viability were evaluated using the sulforhodamine B (SRB) colorimetric assay, as reported earlier.

HS 578T = conditions: Homo sapiens, HS 578T (Breast Cancer), 1.00E-5 Molar, read-out: Growth Percent
Description: as §1, §2

SK-MEL-28 = conditions: Homo sapiens, SK-MEL-28 (Melanoma), 1.00E-5 Molar, read-out: Growth Percent
Description: as §1, §2

HT29 = conditions: Homo sapiens, HT-29, HT29 (Colon Cancer), 1.00E-5 Molar, read-out: Growth Percent
Description: as §1, §2

NCI-H23 = conditions: Homo sapiens, NCI-H23 (Non-Small Cell Lung Cancer), 1.00E-5 Molar, read-out: Growth Percent
Description: as §1, §2

HCC-2998 = conditions: Homo sapiens, HCC-2998 (Colon Cancer), 1.00E-5 Molar, read-out: Growth Percent
Description: as §1, §2

SK-MEL-2 = conditions: Homo sapiens, SK-MEL-2 (Melanoma), 1.00E-5 Molar, read-out: Growth Percent
Description: as §1, §2

A498 = conditions: Homo sapiens, A498 (Renal Cancer), 1.00E-5 Molar, read-out: Growth Percent
Description: as §1, §2

MDA-MB-435 = conditions: Homo sapiens, MDA-MB-435 (Melanoma), 1.00E-5 Molar, read-out: Growth Percent
Description: as §1, §2

LOX IMVI = conditions: Homo sapiens, LOX IMVI (Melanoma), 1.00E-5 Molar, read-out: Growth Percent
Description: as §1, §2

RXF 393 = conditions: Homo sapiens, RXF 393 (Renal Cancer), 1.00E-5 Molar, read-out: Growth Percent
Description: as §1, §2

SNB-19 = conditions: Homo sapiens, SNB-19 (CNS Cancer), 1.00E-5 Molar, read-out: Growth Percent
Description: as §1, §2

OVCAR-3 = conditions: Homo sapiens, OVCAR-3 (Ovarian Cancer), 1.00E-5 Molar, read-out: Growth Percent
Description: as §1, §2

OVCAR-8 = conditions: Homo sapiens, OVCAR-8 (Ovarian Cancer), 1.00E-5 Molar, read-out: Growth Percent
Description: as §1, §2

NCI/ADR-RES = conditions: Homo sapiens, NCI/ADR-RES (Ovarian Cancer), 1.00E-5 Molar, read-out: Growth Percent
Description: as §1, §2

TK-10 = conditions: Homo sapiens, TK-10 (Renal Cancer), 1.00E-5 Molar, read-out: Growth Percent
Description: as §1, §2

HOP-92 = conditions: Homo sapiens, HOP-92 (Non-Small Cell Lung Cancer), 1.00E-5 Molar, read-out: Growth Percent
Description: as §1, §2

A549/ATCC = conditions: Homo sapiens, A549/ATCC (Non-Small Cell Lung Cancer), 1.00E-5 Molar, read-out: Growth Percent
Description: as §1, §2

UACC-62 = conditions: Homo sapiens, UACC-62 (Melanoma), 1.00E-5 Molar, read-out: Growth Percent
Description: as §1, §2

OVCAR-5 = conditions: Homo sapiens, OVCAR-5 (Ovarian Cancer), 1.00E-5 Molar, read-out: Growth Percent
Description: as §1, §2

EKVX = conditions: Homo sapiens, EKVX (Non-Small Cell Lung Cancer), 1.00E-5 Molar, read-out: Growth Percent
Description: as §1, §2

UACC-257 = conditions: Homo sapiens, UACC-257 (Melanoma), 1.00E-5 Molar, read-out: Growth Percent
Description: as §1, §2

KM12 = conditions: Homo sapiens, KM12 (Colon Cancer), 1.00E-5 Molar, read-out: Growth Percent
Description: as §1, §2

CCRF-CEM = conditions: Homo sapiens, CCRF-CEM (Leukemia), 1.00E-5 Molar, read-out: Growth Percent
Description: as §1, §2

SW-620 = conditions: Homo sapiens, SW-620 (Colon Cancer), 1.00E-5 Molar, read-out: Growth Percent
Description: as §1, §2

IGROV1 = conditions: Homo sapiens, IGROV-1, IGROV1 (Ovarian Cancer), 1.00E-5 Molar, read-out: Growth Percent
Description: as §1, §2

CAKI-1 = conditions: Homo sapiens, CAKI-1 (Renal Cancer), 1.00E-5 Molar, read-out: Growth Percent
Description: as §1, §2

MCF7 = conditions: Homo sapiens, MCF7 (Breast Cancer), 1.00E-5 Molar, read-out: Growth Percent
Description: as §1, §2

SN12C = conditions: Homo sapiens, SN12C (Renal Cancer), 1.00E-5 Molar, read-out: Growth Percent
Description: as §1, §2

K-562 = conditions: Homo sapiens, K562, K-562 (Leukemia), 1.00E-5 Molar, read-out: Growth Percent
Description: as §1, §2

SNB-75 = conditions: Homo sapiens, SNB-75 (CNS Cancer), 1.00E-5 Molar, read-out: Growth Percent
Description: as §1, §2

| Compound | activity at 10 µM (OVCAR-4) | activity at 10 µM (HS 578T) | activity at 10 µM (SK-MEL-28) | activity at 10 µM (HT29) | activity at 10 µM (NCI-H23) | activity at 10 µM (HCC-2998) | activity at 10 µM (SK-MEL-2) | activity at 10 µM (A498) | activity at 10 µM (MDA-MB-435) | activity at 10 µM (LOX IMVI) | activity at 10 µM (RXF 393) | activity at 10 µM (SNB-19) | activity at 10 µM (OVCAR-3) | activity at 10 µM (OVCAR-8) | activity at 10 µM (NCI/ADR-RES) | activity at 10 µM (TK-10) | activity at 10 µM (HOP-92) | activity at 10 µM (A549/ATCC) | activity at 10 µM (UACC-62) | activity at 10 µM (OVCAR-5) | also measured |
| --- | --- | --- | --- | --- | --- | --- | --- | --- | --- | --- | --- | --- | --- | --- | --- | --- | --- | --- | --- | --- | --- |
| COc1ccc(C=C(NC(=O)c2ccccc2)C(=O)Nc2ccc(S(N)(=O)=O)cc2)cc1OC [Compound 5g, N-(1-(3,4-Dimethoxyphenyl)-3-oxo-3-((4-sulfamoylphenyl)amino)prop-1-en-2-yl)benzamide] | 105% | 94.8% | 109% | 106% | 102% | 106% | 102% | 109% | 107% | 100% | 118% | 100% | 107% | 97.1% | 104% | 110% | 126% | 106% | 94.3% | 103% | activity at 10 µM (EKVX): 103%; activity at 10 µM (UACC-257): 101%; activity at 10 µM (KM12): 104%; activity at 10 µM (CCRF-CEM): 109%; activity at 10 µM (SW-620): 102%; activity at 10 µM (IGROV1): 91.6%; activity at 10 µM (CAKI-1): 104%; activity at 10 µM (MCF7): 106%; activity at 10 µM (SN12C): 97.6%; activity at 10 µM (K-562): 108%; activity at 10 µM (SNB-75): 103% |
| COc1ccc(C=C(NC(=O)c2ccccc2)C(=O)Nc2ccc(S(N)(=O)=O)cc2)c(OC)c1 [Compound 5f, N-(1-(2,4-Dimethoxyphenyl)-3-oxo-3-((4-sulfamoylphenyl)amino)prop-1-en-2-yl)benzamide] | 104% | 106% | 109% | 106% | 101% | 110% | 102% | 111% | 97% | 99.8% | 108% | 102% | 113% | 100% | 109% | 112% | 114% | 94.9% | 97.2% | 106% | activity at 10 µM (EKVX): 97.3%; activity at 10 µM (UACC-257): 99.6%; activity at 10 µM (KM12): 109%; activity at 10 µM (CCRF-CEM): 107%; activity at 10 µM (SW-620): 107%; activity at 10 µM (IGROV1): 91.9%; activity at 10 µM (CAKI-1): 92.3%; activity at 10 µM (MCF7): 87.6%; activity at 10 µM (SN12C): 94.8%; activity at 10 µM (K-562): 116%; activity at 10 µM (SNB-75): 92.9% |
| Cc1ccc(C=C(NC(=O)c2ccccc2)C(=O)Nc2ccc(S(N)(=O)=O)cc2)o1 [Compound 5h, N-(1-(5-Methylfuran-2-yl)-3-oxo-3-((4-sulfamoylphenyl)amino)prop-1-en-2-yl)benzamide] | 86.2% | 76.5% | 114% | 86.3% | 98.9% | 104% | 97.4% | 99.8% | 99.3% | 94.9% | 95.5% | 96.4% | 108% | 95.5% | 92.2% | 112% | 70.1% | 90.6% | 95% | 100% | activity at 10 µM (EKVX): 98%; activity at 10 µM (UACC-257): 99.4%; activity at 10 µM (KM12): 98.4%; activity at 10 µM (CCRF-CEM): 96.9%; activity at 10 µM (SW-620): 106%; activity at 10 µM (IGROV1): 81%; activity at 10 µM (CAKI-1): 84.4%; activity at 10 µM (MCF7): 97.1%; activity at 10 µM (SN12C): 98.6%; activity at 10 µM (K-562): 96.1%; activity at 10 µM (SNB-75): 81.5% |
| NS(=O)(=O)c1ccc(NC(=O)C(=Cc2ccc(Cl)cc2)NC(=O)c2ccccc2)cc1 [Compound 5a, N-(1-(4-Chlorophenyl)-3-oxo-3-((4-sulfamoylphenyl)amino)prop-1-en-2-yl)benzamide] | 95.5% | 101% | 110% | 106% | 103% | 103% | 102% | 104% | 98.7% | 97% | 103% | 103% | 104% | 97.6% | 104% | 96.6% | 98.8% | 101% | 96.2% | 105% | activity at 10 µM (EKVX): 99.5%; activity at 10 µM (UACC-257): 103%; activity at 10 µM (KM12): 108%; activity at 10 µM (CCRF-CEM): 107%; activity at 10 µM (SW-620): 100%; activity at 10 µM (IGROV1): 90.9%; activity at 10 µM (CAKI-1): 92.5%; activity at 10 µM (MCF7): 98.3%; activity at 10 µM (SN12C): 104%; activity at 10 µM (K-562): 109%; activity at 10 µM (SNB-75): 86.3% |
| Cc1ccc(C=C(NC(=O)c2ccccc2)C(=O)Nc2ccc(S(N)(=O)=O)cc2)cc1 [Compound 5d, N-(3-Oxo-3-((4-sulfamoylphenyl)amino)-1-(p-tolyl)prop-1-en-2-yl)benzamide] | 90.6% | 117% | 118% | 103% | 94.9% | 100% | 102% | 103% | 92.9% | 99% | 116% | 103% | 111% | 98.3% | 99.3% | 104% | 109% | 95.4% | 99.4% | 103% | activity at 10 µM (EKVX): 108%; activity at 10 µM (UACC-257): 105%; activity at 10 µM (KM12): 103%; activity at 10 µM (CCRF-CEM): 102%; activity at 10 µM (SW-620): 113%; activity at 10 µM (IGROV1): 99.2%; activity at 10 µM (CAKI-1): 93.9%; activity at 10 µM (MCF7): 104%; activity at 10 µM (SN12C): 94.8%; activity at 10 µM (K-562): 94.6%; activity at 10 µM (SNB-75): 92.6% |
